What was measured:
[1] = test system: Rabbit plaque aorta or normal rabbit aorta; assay: Ex vivo blood vessel binding assay; parameters: species or system New Zealand white rabbits; settings: radiolabeled compound incubated with rabbit aorta (0.5 cm) in phosphate buffered saline for 2 hours at 37° C; bound compound as percentage of the incubated compound
Excerpt: Normal aorta was obtained from New Zealand white rabbits. Aorta bearing atherosclerotic plaque was obtained from New Zealand white rabbits balloon stripped along the abdominal aorta and placed on a high fat diet (0.5% cholesterol) for 16-22 weeks. Vascular injury was produced with a 3-F Fogarty catheter along the abdominal aorta and left iliofemoral artery. This procedure generates an accelerated complex lesion development with a lipid rich core covered by a fibrous cap in rabbits. Rabbit plaque aorta or normal rabbit aorta (0.5 cm) was incubated with 10 nCi of ^14C labeled compound or 1.5 μCi of ^99m Tc labeled compound or 0.135 μCi of ^111In labeled compound or 0.135 μCi of ^68Ga labeled compound or 0.135 µCi of ^153Gd labeled compound diluted in phosphate buffered saline (450 μL) for 2 hours at 37° C. The supernatant from this sample was collected and analyzed by HPLC to determine compound stability in presence of blood vessels. The blood vessel tissue was then washed with phosphate buffered saline (3×10 mL). Phosphate buffered saline (10 ml) was added to the tissue and incubated at 37° C. for 1 hour. The tissue was then washed with phosphate buffered saline (3×10 mL). The washed tissue was oxidized in a tissue oxidizer for C-14 labeled compounds. The counts in the oxidized tissue were determined on a beta counter. Blood vessels incubated with ^99m Tc labeled compound or ^111In labeled compound or ^68Ga labeled compound or ^153Gd labeled compound were counted on a gamma counter. The amount of compound bound to the tissue was determined as a percentage of the incubated compound. This was calculated using the following formula: [formula]

[2] = test system: aorta of apolipoprotein E (apoE) knockout mouse; assay: In vivo ApoE mouse aorta uptake study; settings: 60 min postinjection; for Aorta (% ID/g): ApoE mouse on high-fat diet 37-41 weeks, tail vein bolus; for Aorta/Blood Ratio: ApoE mouse, calculated from the % ID/g data
Method: Mice were fed a high-fat diet to accelerate plaque formation and compounds were tested in the mice between 37-41 weeks on diet. Test compounds were radiolabeled (^14C, ^99mTc, or ^111In as described above) and administered at 0.02-4.0 mCi/kg to anesthetized mice in a single, bolus injection via the tail vein. Blood samples were collected via the tail between 0-30 minutes postinjection for pharmacokinetic analysis and mice were euthanized by CO2 at 60 minutes for tissue harvesting. The aorta were flushed with saline through the left ventricle exiting via the femoral vein. The aorta were then removed from the heart to the renal bifurcation and additional tissue samples collected (blood, muscle, liver, kidney, heart, lung, spleen and innominate artery). All samples were weighed and assayed for radioactivity. Tissue uptake is expressed as percent of injected dose per gram of tissue (% ID/g). The aorta to blood ratios were calculated from the % ID/g data.

| Compound | Tissue Binding % [1] [%] | Aorta (% ID/g) [2] [% ID/g] | Aorta/Blood Ratio [2] |
| --- | --- | --- | --- |
| CC(C)CC(NC(=O)OC(C)(C)C)C(=O)NNC(=O)NN (stereo not drawn) [Example 124, Boc-d-Leu-NHNH—CO—NHNH2] | 5.85 | – | – |
| CC(C)C[C@@H](NC(=O)OC(C)(C)C)C(=O)NCC(=O)NCCCCN [Example 140, Boc-d-Leu-Gly-NH-Butyl-NH2] | 0.52 | 1.3 | 0.8 |
| Boc-Aib-Ahxh-H [Example 130] | 3.33 | – | – |
| Boc-L-d-Leu-Ahxh-H [Example 150] | 5.36 | 2.1 | 1.2 |
| Boc-Leu-PABA-CO-d-Leu-Ahxh-H [Example 127] | 24.22 | – | – |
| Boc-cLeu-Ahxh-H [Example 133] | 9.10 | 5.7 | 2.9 |
| Boc-d-Ala-Ahxh-H [Example 134] | 5.72 | – | – |
| Boc-d-Aphe(ε-Leu(Boc))-Ahxh-H [Example 151] | 26.92 | 9.0 | 2.9 |
| Boc-d-Arg(Pmc)-Ahxh-H [Example 131] | 5.19 | – | – |
| Boc-d-Glu(tBu)-Ahxh-H [Example 132] | 2.47 | – | – |
| Boc-d-Leu-Ambh-H [Example 138] | 21.11 | 8.6 | 6.7 |
| Boc-d-Leu-Apah-H [Example 121] | 30.55 | 9.3 | 4.6 |
| Boc-d-Leu-N(Me)-NH-Ahx-H [Example 141] | 0.75 | – | – |
| Boc-d-Leu-N(Me)-NH-Ahx-NH2 [Example 126] | 2.97 | 1.3 | 0.6 |
| Boc-d-Leu-NHNH2 [Example 122] | 13.99 | 4.0 | 3.0 |
| Boc-d-Leu-NHNH—CO-(PEG)4-NH2 [Example 123] | 9.74 | – | – |
| Boc-d-Lys(e-Leu(Boc))-Ahxh-H [Example 136] | 9.15 | – | – |
| Boc-d-Phe-Ahxh-H [Example 129] | 14.42 | 8.1 | 3.3 |
| Boc-βLeu-Ahxh-H [Example 135] | 2.30 | – | – |
| H-Ahxh-d-Leu-Boc [Example 137] | 1.43 | – | – |
| H-Aic-Ambh-DTPA [Example 207] | 5.26 | 3.8 | 2.1 |
| H-Pro-Ahxh-DTPA [Example 163] | 2.61 | 6.5 | 0.9 |
| H-cLeu-Ahxh-DTPA [Example 188] | 3.91 | 2.8 | 2.2 |
| H-cLeu-Ambh-DTPA [Example 195] | 9.52 | 4.6 | 1.9 |
| H-d-2-Nal-Ambh-DTPA [Example 212] | 18.78 | 12.6 | 10.8 |
| H-d-Aphe-Ahxh-DTPA [Example 193] | 8.69 | 6.2 | 3.0 |
| H-d-Bip-Ahxh-DTPA [Example 175] | 32.09 | 7.9 | 5.9 |
| H-d-Bip-NHNH-DTPA [Example 162] | 6.39 | 7.1 | 4.7 |

| Compound | Tissue Binding % [1] [%] | Aorta (% ID/g) [2] [% ID/g] | Aorta/Blood Ratio [2] |
| --- | --- | --- | --- |
| H-d-Cha-Ahxh-DTPA [Example 194] | 16.33 | 6.8 | 3.3 |
| H-d-Cha-Ambh-DTPA [Example 196] | 8.25 | 9.8 | 7.8 |
| H-d-Cha-Apah-DTPA [Example 170] | 7.55 | 7.0 | 5.4 |
| H-d-Cha-Inph-DTPA [Example 197] | 6.97 | – | – |
| H-d-Cys(Bzl)-Ahxh-DTPA [Example 167] | 9.74 | 8.0 | 4.9 |
| H-d-Cys(Bzl)-Ambh-DTPA [Example 179] | 9.67 | – | – |
| H-d-Cys(Bzl)-Apah-DTPA [Example 173] | 13.82 | 9.5 | 5.8 |
| H-d-Cys(Bzl)-Apph-DTPA [Example 181] | 13.91 | 9.8 | 7.3 |
| H-d-H2phe-Ambh-DTPA [Example 185] | 10.64 | 11.2 | 8.1 |
| H-d-His-Ahxh-DTPA [Example 172] | 4.22 | 3.7 | 1.2 |
| H-d-Hphe-Ahxh-DTPA [Example 168] | 9.17 | 7.5 | 5.8 |
| H-d-Hphe-Ambh-Ahx-DTPA [Example 211] | 18.09 | 9.9 | 3.9 |
| H-d-Hphe-Apph-DTPA [Example 180] | 18.24 | 8.3 | 13.2 |
| H-d-Hphe-Pheh-AEEA-DTPA [Example 213] | 26.68 | 8.4 | 9.8 |
| H-d-Hphe-mAmbh-DTPA [Example 210] | 13.13 | 10.5 | 11.2 |
| H-d-Leu-Apah-DOTA [Example 160] | 9.59 | – | – |
| H-d-Leu-NHNH-DTPA [Example 189] | 1.08 | 3.3 | 1.0 |
| H-d-Leu-XInph-DTPA [Example 201] | 2.94 | 4.3 | 2.1 |
| H-d-Nle-Ahxh-DTPA [Example 200] | 2.72 | 5.1 | 2.2 |
| H-d-Phe(4-NHBz)-Ambh-DTPA [Example 205] | 8.83 | 7.8 | 6.3 |
| H-d-Phe(CF3)-Apah-DTPA [Example 177] | 13.53 | 7.9 | 8.7 |
| H-d-Phe(F5)-Ambh-DTPA [Example 204] | 16.11 | 6.7 | 5.3 |
| H-d-Phe-Ambh-DTPA [Example 161] | 7.75 | 8.7 | 4.9 |
| H-d-Phe-Inph-DTPA [Example 199] | 3.36 | – | – |
| H-d-Pro-Ahxh-DTPA [Example 165] | 5.51 | – | – |
| H-d-Val-Ambh-DTPA [Example 198] | 5.26 | – | – |
| N,N-Me2-d-Leu-Ahxh-H [Example 125] | 4.63 | – | – |
